Experimental data taken from US20090076092A1, “METHOD FOR DISRUPTING REPRODUCTIVE PERFORMANCE OF ARTHROPODS” (priority 2006, published 2009).

Tests used:
[1] = tested on: housefly, Musca domestica (L.); test: Test A: reproductive performance of adult houseflies after spray at sub-lethal concentration; format: in vivo; conditions: 2 ppm spray of adults; totaled on the 8th day after treatment
From the text: For evaluating housefly, Musca domestica (L.), each test unit consisted of a pair of virgin adult female and male houseflies of similar age (±1 day). To obtain the adult flies used in the study, pupae of approximately the same age (±1 day) were separated by sex, and placed in separate containers until adults emerged.
(§1) The LC20 sub-lethal dose of Compound 2 on the housefly was estimated to be 2 ppm using probit analysis extrapolation based on the preliminary dose-response curves obtained at concentrations of 50, 100, 500 and 1000 ppm. Two treatments consisted of Compound 2 at 2 ppm and a control without test compound. Each treatment had 10 replicates.
After emergence, the adult houseflies were placed in a meshed cage and were sprayed with test solutions using a belt sprayer. Test solutions were applied using a compressed air-propelled (moving) belt sprayer equipped with an 8001E Tee Jet flat fan spray nozzle. The nozzles were positioned at about 20 cm above the test unit, and calibrated at 276 kPa to deliver volumes equivalent to 500 L/ha. […]
Observations of the number of eggs laid per adult female were made daily for 7 days. The cotton wicks containing eggs were removed daily and counted, and then kept in a growth chamber at 26° C., 75% relative humidity and 16 hours of light per day to allow egg hatching and emergence of neonates. […]

[2] = tested on: diamondback moth (Plutella xylostella); test: Test G: number of eggs (fecundity) of adult diamondback moth; format: in vivo; conditions: 10 ppm, control itself gave very few eggs
From the text: For evaluating the reproductive performance effects on diamondback moth (Plutella xylostella), a minimum of 120 larvae of diamondback moth of each sex were used. Male and female individuals of late instar larvae were separated and caged in individual containers containing Chinese kale. Male diamondback moths were identified by a white dot on the abdomen at the late instar larval stage. When pupae emerged, each pupa was caged separately until it emerged as adult.
(§2) In addition, a control without test compound was included.
Groups of 40 newly emerged (<24 hours) moths of the same sex were placed inside a meshed cage. The caged adult moths were then sprayed with the test solution, using a CO2 backpack sprayer at 500 L/Ha. For the control treatment, the adults were sprayed with water at a similar spray volume. The groups of treated individuals were then transferred into a clean container with a source of adult diet (i.e. a cotton wick soaked in 10% sucrose solution). Separate containers were used for different groups of treated insects. One day after treatment, the numbers of live, moribund and dead adults were counted. One live treated male and one live treated female were placed together in a copulation cage, which was a 300 mL clear plastic cup covered with nylon screen supplied with an adult diet source of 10% sucrose solution.
Each pair of virgin adults was a replicate, and each treatment consisted of 10 to 20 replicates. Every day each pair of moths was moved to a new cup supplied with a diet of 10% sucrose solution.
The number of eggs laid per female moth was counted daily during the two days when the female moths actively produced viable eggs. The results, listed in Table G, indicate that no meaningful comparative information can be inferred, as the even the Control provided very few eggs per female moth; this indicates a systemic reproduction problem from unknown causes. However, had the Control worked, we expect to see the reproductive performance effects on diamondback moth.

[3] = tested on: diamondback moth; test: Previous laboratory studies of diamondback moth mortality; format: in vivo; conditions: Plutella xylostella, read-out: mortality of the diamondback moth (LC20)
From the text: (§3) The sub-lethal concentrations or doses used in the various tests for the specific pest species and populations tested in the context of the present invention were estimated from multiple-rate, dose-finding tests to determine the control rates and activity break rates. […] Therefore, depending on the target pest species, either the LC50 or a suitable concentration between LC50 and LC20 was selected as the sub-lethal dose. The specific procedures used to select the respective doses are described in each Test.
as §2

[4] = tested on: housefly; test: Dose-finding test for sub-lethal dose on housefly; format: in vivo, Musca domestica; conditions: probit analysis extrapolation from preliminary dose-response curves at 50, 100, 500 and 1000 ppm
From the text: as §3, §1

[5] = tested on: green peach aphid (Myzus persicae Sulzer); test: Test B: nymph production by green peach aphid after 24 hours exposure on treated radish plants; format: in vivo; conditions: for Living (%) / On plant (%): 1 DAT; for Living (%): all aphids alive 24 h after treatment; for On plant (%): all aphids on the treated plant
Procedure: For evaluating reproductive performance effects on green peach aphid (Myzus persicae Sulzer), each test unit consisted of a radish plant grown in a 6 cm×6 cm square pot infested with a mixed population (nymphs and adults) of green peach aphids from a laboratory-reared culture. Each plant was infested with about 100 aphids. Test solutions were prepared and sprayed on the test plants (2 plants per treatment) as described for TEST A. Treatments included Compound 1 at 100 and 500 ppm, Compound 2 at 4 and 6 ppm, and a control without test compound.
Aphids were kept on the treated plants for 24 hours, and then only adult aphids staying on the treated plant were transferred to untreated radish plants grown singly in a 6 cm×6 cm square pots. One test unit or one replicate consisted of a single adult aphid on a radish plant in a pot. The number of nymphs in each replicate was counted 4 and 6 days after treatment. At the higher concentration of each test compound a total of 45 replicates were used, and at the lower concentration of each test compound a total of 30 replicates were used. In addition, prior to transferring aphids singly to the untreated radish plants one day after treatment (1 DAT), the total number of aphids living and those remaining on the treated plant were counted.
The results are listed in Table B. Square-root transformation was done on the number of nymphs produced per adult (female) aphid, and the data were analyzed using analysis of variance (ANOVA) and Fisher's Least Significant Difference (LSD) tests for separation of means.

[6] = tested on: adult thrips; test: Previous study of adult thrips mortality; format: in vivo, Frankliniella occidentalis; conditions: read-out: adult mortality
From the text: as §3
Thus, the sub-lethal concentration of Compound 2 was selected to be 10 ppm in the test treatments. Test solutions were prepared by diluting with water to the selected concentration. Treatments included Compound 2 at 10 ppm as well as a control without test compound.

## CNC(=O)c1cc(C#N)cc(C)c1NC(=O)c1cc(Br)nn1-c1ncccc1Cl [Compound 2, 3-bromo-1-(3-chloro-2-pyridinyl)-N-[4-cyano-2-methyl-6-[(methylamino)-carbonyl]phenyl]-1H-pyrazole-5-carboxamide]
[1]
  Mean number of neonates per female: 16.7
[2]; 1 DAT
  No. of eggs per female moth: 0
[2]; 2 DAT
  No. of eggs per female moth: 0.2
[3]
  mortality at 10 ppm: ~20%
[4]
  LC20 sub-lethal dose: 2 ppm
[5]; 4 and 6 ppm, one day after treatment
  living aphids that did not stay on the plant: 28-48%
[5]; 4 ppm
  Living (%): 97.6%
  On plant (%): 72.0%
[5]; 4 ppm, 6 DAT, per adult
  No. of nymphs (mean ± SE): 6.1 ± 0.6 a
[5]; 6 ppm
  Living (%): 82.3%
  On plant (%): 51.1%
[6]
  mortality at 10 ppm: < 50%
